Assay results: ChEMBL document CHEMBL6096690, “Synthesis and Biological Evaluation of Peripheral HTR2A Antagonists for Colorectal Cancer” (J Med Chem, 2025)

Experiments:
[1] = biological target: 5-hydroxytryptamine receptor 2A (Homo sapiens, UniProt P28223); test: Antagonist activity at 5HTR2A (unknown origin) assessed as inhibition of 5-HTR2A
hERG (KCNH2) = hERG (KCNH2) (Homo sapiens, UniProt Q12809); test: Inhibition of hERG at 10 uM relative to control; format: toxicity
Chain of hERG (KCNH2) (Q12809 whole entry): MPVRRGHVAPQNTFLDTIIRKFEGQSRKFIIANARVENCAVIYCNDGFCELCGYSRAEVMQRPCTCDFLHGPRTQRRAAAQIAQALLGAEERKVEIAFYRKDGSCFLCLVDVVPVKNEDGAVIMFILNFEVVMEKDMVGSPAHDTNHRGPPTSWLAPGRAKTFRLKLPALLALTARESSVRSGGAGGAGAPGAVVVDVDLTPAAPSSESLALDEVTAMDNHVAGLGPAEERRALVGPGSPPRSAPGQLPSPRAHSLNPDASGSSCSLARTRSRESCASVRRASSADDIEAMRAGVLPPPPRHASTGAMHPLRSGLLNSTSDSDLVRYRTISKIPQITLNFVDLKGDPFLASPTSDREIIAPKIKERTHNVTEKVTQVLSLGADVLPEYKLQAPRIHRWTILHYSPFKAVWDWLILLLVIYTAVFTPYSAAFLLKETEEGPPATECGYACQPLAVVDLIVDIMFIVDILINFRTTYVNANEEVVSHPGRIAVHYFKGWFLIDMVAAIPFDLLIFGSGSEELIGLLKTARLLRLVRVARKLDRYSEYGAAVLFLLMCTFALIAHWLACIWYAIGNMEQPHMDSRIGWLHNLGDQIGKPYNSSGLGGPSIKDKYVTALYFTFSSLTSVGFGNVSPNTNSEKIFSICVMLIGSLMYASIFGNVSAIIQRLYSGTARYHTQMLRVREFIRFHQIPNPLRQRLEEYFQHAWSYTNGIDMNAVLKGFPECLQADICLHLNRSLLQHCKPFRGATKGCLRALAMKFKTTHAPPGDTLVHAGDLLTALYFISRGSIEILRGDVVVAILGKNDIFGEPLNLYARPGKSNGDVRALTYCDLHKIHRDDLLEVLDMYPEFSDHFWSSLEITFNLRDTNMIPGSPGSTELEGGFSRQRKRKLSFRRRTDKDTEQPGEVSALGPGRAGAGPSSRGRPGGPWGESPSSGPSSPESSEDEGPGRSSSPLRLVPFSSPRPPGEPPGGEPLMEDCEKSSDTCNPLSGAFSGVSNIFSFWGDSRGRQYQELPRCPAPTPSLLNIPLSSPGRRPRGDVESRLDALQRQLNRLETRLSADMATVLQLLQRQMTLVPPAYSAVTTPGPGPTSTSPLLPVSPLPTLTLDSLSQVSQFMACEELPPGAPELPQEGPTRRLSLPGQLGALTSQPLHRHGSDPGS

Chain of 5-hydroxytryptamine receptor 2A (P28223 whole entry): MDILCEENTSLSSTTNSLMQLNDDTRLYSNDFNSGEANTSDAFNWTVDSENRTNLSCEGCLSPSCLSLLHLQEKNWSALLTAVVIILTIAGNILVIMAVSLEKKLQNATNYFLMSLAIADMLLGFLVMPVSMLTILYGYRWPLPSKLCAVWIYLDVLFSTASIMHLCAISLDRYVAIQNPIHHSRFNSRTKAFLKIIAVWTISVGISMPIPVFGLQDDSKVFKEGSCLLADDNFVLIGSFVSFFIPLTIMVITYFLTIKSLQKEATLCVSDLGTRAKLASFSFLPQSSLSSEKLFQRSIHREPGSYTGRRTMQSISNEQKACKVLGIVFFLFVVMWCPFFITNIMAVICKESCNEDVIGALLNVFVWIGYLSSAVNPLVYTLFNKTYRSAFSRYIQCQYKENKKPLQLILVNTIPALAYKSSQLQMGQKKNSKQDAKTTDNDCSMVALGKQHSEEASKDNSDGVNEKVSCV

IC50 [1]	Compound	inhibition at 10 µM (hERG (KCNH2))
0.0918 µM	O=C(NCc1ccc(OCC(O)CN2CCN(c3cccc(Cl)c3Cl)CC2)cc1)N(Cc1ccc(F)cc1)C1CCNCC1 (stereo unspecified)	–
0.0495 µM	O=C(NCc1ccc(OCC(O)CN2CCN(c3noc4cc(F)ccc34)CC2)cc1)N(Cc1cc(F)c(F)cc1F)C1CCNCC1 (stereo unspecified)	72.9%
0.0542 µM	O=C(NCc1ccc(OCC(O)CN2CCN(c3nsc4ccccc34)CC2)cc1)N(Cc1ccc(F)cc1)C1CCNCC1 (stereo unspecified)	–
0.0364 µM	O=C(NCc1ccc(OCC(O)CN2CCN(c3noc4cc(F)ccc34)CC2)cc1)N(Cc1c(F)cc(F)cc1F)C1CCNCC1 (stereo unspecified)	83.6%
